Key:
[1] = tested on: methotrexate-induced delayed vomiting in dogs; test: Methotrexate-induced delayed vomiting in dogs, oral dosing; type: in vivo, beagle dogs; details: methotrexate 2.5 mg/kg i.v.; for Frequency of vomiting (mean ± SD), Total frequency / Number of dogs with vomiting/number of tested dogs: 72 hours
Protocol: 3 or 4 beagle dogs (8.3 to 12.6 kg), male or female per one group were used. Methotrexate was intravenously administered at 2.5 mg/ml/kg. 8, 24 and 48 hours after methotrexate dosing, predetermined doses of the compound No. 3, ondansetron and 0.5% methyl cellulose solution were orally given. The compound No. 3 and 0.5 % methyl cellulose solution were dosed 30 minutes after a small amount of a feed was given to the animals, while ondansetron was dosed to the animals under fasting. The frequency of vomiting was counted in number, up to 72 hours after methotrexate dosing. The compound No. 3 was suspended in 0.5 % methyl cellulose solution and was then orally dosed at a ratio of 0.25 to 1 ml per 1 kg body weight. A predetermined volume of an ondansetron injection at a concentration of 0.2 w/v % was orally dosed. Additionally, 0.5 % methyl cellulose solution was orally given at a ratio of 1 ml per 1 kg body weight. The data relating to the frequency of vomiting, the latency and the time period from the occurrence of vomiting to the termination thereof were statistically analyzed by the Dunnett test, with reference to the difference from the control group.
The delayed vomiting suppression ratio and the suppression ratio of the total frequency of vomiting were calculated by the following formula.

[2] = tested on: vomiting induced by morphine in ferrets; test: Vomiting induced by morphine in ferrets, oral dosing; type: in vivo; details: morphine 0.3 mg/kg subcutaneous; for A: Number of ferrets with retching/number of tested ferrets / B: Frequency of retching (mean ± SD) / C: Time period until first retching (minute; mean ± SD) / D: Duration of retching (minute; mean ± SD) / E: Number of ferrets with vomiting/number of tested ferrets / F: Frequency of vomiting (mean ± SD) / G: Time period until first vomiting (minute; mean ± SD) / H: Duration of vomiting (minute; mean ± SD): 30 minutes
Protocol: Male 6 or 7 ferrets (1.6 to 2.0 kg) per one group were used. Morphine was subcutaneously administered at0.3 mg/0.3 ml/kg. 2.5 hours before morphine dosing, a small amount of a feed was given to the animals. 30 minutes thereafter, predetermined doses of the compound No. 3 were orally given. To a control animal group under no fasting was orally given a predetermined volume of 0.5 % methyl cellulose solution. A predetermined volume of ondansetron was orally given to the animals under fasting. To a control animal group of ondansetron under fasting was orally given a predetermined volume of physiological saline. The frequency of vomiting was counted up to 30 minutes after morphine dosing. The compound No. 3 was suspended in 0.5 % methyl cellulose solution and was then orally dosed at a ratio of 1 ml per 1 kg body weight. An injection of ondansetron at a concentration of 0.2 w/v % was orally dosed. Additionally, 0.5 % methyl cellulose solution was orally given at a ratio of 1 ml per 1 kg body weight, while physiological saline was orally given at a ratio of 1 ml per 1 kg body weight. The data relating to the frequency of vomiting, the latency and the time period from the occurrence of vomiting to the termination thereof were statistically analyzed by the Dunnett test or t test, with reference to the difference from the control group.
The retching suppression ratio and vomiting suppression ratio were calculated by the following formula. [Frequency of retching or vomiting in control] - [Frequency of retching or vomiting in animals dosed with compound No. 3] / [Frequency of retching or vomiting in control] x 100 (%) [formula]

[3] = tested on: vomiting induced by a central emetic agent apomorphine in dogs; test: Vomiting induced by apomorphine in dogs; type: in vivo, beagle dogs; details: apomorphine 0.1 mg/kg subcutaneous; for B: Frequency of vomiting (mean ± SD) / C: Time period until first vomiting (minute; mean ± SD) / D: Duration of vomiting (minute; mean ± SD) / Number of dogs with vomiting/number of tested dogs: one hour
Protocol: 3 male or female beagle dogs (7.8 to 15.9 kg) per one group were used. Apomorphine was subcutaneously given at 0.1 mg/ml/kg. 2.5 hours prior to apomorphine administration, a small amount of a feed was given to the animals. 30 minutes thereafter, predetermined doses of the compound No. 3 were orally given. Similarly, 0.5 % methyl cellulose solution was orally given to a control animal group under no fasting. A predetermined dose of ondansetron was given orally to the animals under fasting. The frequency of vomiting was counted in number, up to one hour after apomorphine administration. The compound No. 3 was dissolved in 0.5 % methyl cellulose solution, for oral dosing at a ratio of 1 ml per 1 kg • body weight. An injection of ondansetron at a concentration of 0.2% w/v was orally given. Additionally, 0.5 % methyl cellulose solution was orally given at a ratio of 1 ml per 1 kg • body weight. The data relating to the frequency of vomiting, the latency and the time period from the occurrence of vomiting to the termination thereof were statistically analyzed by the Dunnett test, with reference to the difference from the control group.
The vomiting suppression ratio was calculated by the following formula.

With `Cc1ccc(-c2c3n(c(=O)c4ncccc24)CC[C@@H](C)CN(Cc2cc(C(F)(F)F)cc(C(F)(F)F)c2)C3=O)cc1` [Cpd. No.3, (9R)-7-[3,5-bis(trifluoromethyl)benzyl]-6,7,8,9,10,11-hexahydro-9-methyl-5-(4-methylphenyl)-6,13-dioxo-13H-[1,4]diazocino[2,1-g][1,7]naphthylidine] the “Effect on methotrexate-induced vomiting (in words)” value ([1]; 0.01 mg/kg or higher p.o.) was “significantly suppressed”, the “Effect on the time period from the occurrence of vomiting to the termination thereof (in words)” value ([1]; 0.01 mg/kg or higher p.o.) was “significantly shortened” and the “Delayed vomiting suppression ratio (24 to 72 hours after MIX dosing)” value (shortened to “Delayed vomiting suppression ratio”) ([1]; 0.01 mg/kg p.o. once daily) was 60 % b. For the same compound, the “Suppression ratio of total frequency of vomiting (0 to 72 hours after MTX dosing)” value ([1]; 0.01 mg/kg p.o. once daily) was 62 % b, the “Duration (in hour; mean ± SD)” value ([1]; 0.01 mg/kg p.o.) was 21.8 ± 5.8 a hour and the “Frequency of vomiting (mean ± SD), Day 0 (0-24 hours)” value ([1]; 0.01 mg/kg p.o.) was 0 b. For the same compound, the “Frequency of vomiting (mean ± SD), Days 1 + 2 (24 - 72 hours)” value ([1]; 0.01 mg/kg p.o.) was 4.7 ± 0.7 b, the “Latency (in hour; mean ± SD)” value ([1]; 0.01 mg/kg p.o.) was 33.8 ± 4.8 h and the “Frequency of vomiting (mean ± SD), Total frequency” value ([1]; 0.01 mg/kg p.o.) was 4.7 ± 0.7 b. The “Number of dogs with vomiting/number of tested dogs” value ([1]; 0.01 mg/kg p.o.) was 3/3, the “Delayed vomiting suppression ratio” value ([1]; 0.1 mg/kg p.o. once daily) was 74 % b and the “Suppression ratio of total frequency of vomiting (0 to 72 hours after MTX dosing)” value ([1]; 0.1 mg/kg p.o. once daily) was 76 % b. For the same compound, the “Duration (in hour; mean ± SD)” value ([1]; 0.1 mg/kg p.o.) was 15.0 ± 8.0 b hour, the “Frequency of vomiting (mean ± SD), Day 0 (0-24 hours)” value ([1]; 0.1 mg/kg p.o.) was 0 b and the “Frequency of vomiting (mean ± SD), Days 1 + 2 (24 - 72 hours)” value ([1]; 0.1 mg/kg p.o.) was 3.0 ± 1.0 b. For the same compound, the “Latency (in hour; mean ± SD)” value ([1]; 0.1 mg/kg p.o.) was 35.7 ± 7.1 h, the “Frequency of vomiting (mean ± SD), Total frequency” value ([1]; 0.1 mg/kg p.o.) was 3.0 ± 1.0 b and the “Number of dogs with vomiting/number of tested dogs” value ([1]; 0.1 mg/kg p.o.) was 3/3. For the same compound, the “Delayed vomiting suppression ratio” value ([1]; 1 mg/kg p.o. once daily) was 68 % b, the “Suppression ratio of total frequency of vomiting (0 to 72 hours after MTX dosing)” value ([1]; 1 mg/kg p.o. once daily) was 70 % b and the “Duration (in hour; mean ± SD)” value ([1]; 1 mg/kg p.o.) was 14.4 ± 6.1 b hour. The “Frequency of vomiting (mean ± SD), Day 0 (0-24 hours)” value ([1]; 1 mg/kg p.o.) was 0 b, the “Frequency of vomiting (mean ± SD), Days 1 + 2 (24 - 72 hours)” value ([1]; 1 mg/kg p.o.) was 3.7 ± 0.7 b and the “Latency (in hour; mean ± SD)” value ([1]; 1 mg/kg p.o.) was 46.7 ± 8.7 h. The “Frequency of vomiting (mean ± SD), Total frequency” value ([1]; 1 mg/kg p.o.) was 3.7 ± 0.7 b, the “Number of dogs with vomiting/number of tested dogs” value ([1]; 1 mg/kg p.o.) was 3/3 and the “Delayed vomiting suppression ratio” value ([1]; 3 mg/kg p.o. once daily) was 85 % b. For the same compound, the “Suppression ratio of total frequency of vomiting (0 to 72 hours after MTX dosing)” value ([1]; 3 mg/kg p.o. once daily) was 86 % b, the “Duration (in hour; mean ± SD)” value ([1]; 3 mg/kg p.o.) was 6.4 ± 5.9 b hour and the “Frequency of vomiting (mean ± SD), Day 0 (0-24 hours)” value ([1]; 3 mg/kg p.o.) was 0 b. For the same compound, the “Frequency of vomiting (mean ± SD), Days 1 + 2 (24 - 72 hours)” value ([1]; 3 mg/kg p.o.) was 1.7 ± 0.3 b, the “Latency (in hour; mean ± SD)” value ([1]; 3 mg/kg p.o.) was 45.5 ± 3.3 h and the “Frequency of vomiting (mean ± SD), Total frequency” value ([1]; 3 mg/kg p.o.) was 1.7 ± 0.3 b. For the same compound, the “Number of dogs with vomiting/number of tested dogs” value ([1]; 3 mg/kg p.o.) was 3/3, the “Delayed vomiting suppression ratio” value ([1]; 10 mg/kg p.o. once daily) was 97 % b and the “Suppression ratio of total frequency of vomiting (0 to 72 hours after MTX dosing)” value ([1]; 10 mg/kg p.o. once daily) was 98 % b. For the same compound, the “Duration (in hour; mean ± SD)” value ([1]; 10 mg/kg p.o.) was 0 b hour, the “Effect on methotrexate-induced vomiting (in words)” value ([1]; 10 mg/kg p.o.) was “almost completely suppressed” and the “Frequency of vomiting (mean ± SD), Day 0 (0-24 hours)” value ([1]; 10 mg/kg p.o.) was 0 b. For the same compound, the “Frequency of vomiting (mean ± SD), Days 1 + 2 (24 - 72 hours)” value ([1]; 10 mg/kg p.o.) was 0.3 ± 0.3 b, the “Latency (in hour; mean ± SD)” value ([1]; 10 mg/kg p.o.) was 66.2 ± 5.8 b hour and the “Frequency of vomiting (mean ± SD), Total frequency” value ([1]; 10 mg/kg p.o.) was 0.3 ± 0.3 b. The “Number of dogs with vomiting/number of tested dogs” value ([1]; 10 mg/kg p.o.) was 1/4, the “Acute vomiting suppression ratio” value ([2]; 1 mg/kg p.o.) was 31 % NS and the “Effect on retching and vomiting (in words)” value ([2]; 1 mg/kg p.o.) was “likely to be suppressed”. For the same compound, the Pseudo-vomiting suppression ratio ([2]; 1 mg/kg p.o.) was 43 % NS, the “A: Number of ferrets with retching/number of tested ferrets” value ([2]; 1 mg/kg p.o.) was 4/6 and the “B: Frequency of retching (mean ± SD)” value ([2]; 1 mg/kg p.o.) was 18.3 ± 7.0. The “C: Time period until first retching (minute; mean ± SD)” value ([2]; 1 mg/kg p.o.) was 12.3 ± 5.6 min, the “D: Duration of retching (minute; mean ± SD)” value ([2]; 1 mg/kg p.o.) was 5.5 ± 1.9 min and the “E: Number of ferrets with vomiting/number of tested ferrets” value ([2]; 1 mg/kg p.o.) was 4/6. For the same compound, the “F: Frequency of vomiting (mean ± SD)” value ([2]; 1 mg/kg p.o.) was 2.5 ± 1.0, the “G: Time period until first vomiting (minute; mean ± SD)” value ([2]; 1 mg/kg p.o.) was 13.3 ± 5.4 min and the “H: Duration of vomiting (minute; mean ± SD)” value ([2]; 1 mg/kg p.o.) was 3.8 ± 1.9 min. For the same compound, the “Acute vomiting suppression ratio” value ([2]; 3 mg/kg p.o.) was 86 % a, the “Effect on retching and vomiting (in words)” value ([2]; 3 mg/kg p.o.) was “significantly suppressed” and the Pseudo-vomiting suppression ratio ([2]; 3 mg/kg p.o.) was 79 % b. For the same compound, the “A: Number of ferrets with retching/number of tested ferrets” value ([2]; 3 mg/kg p.o.) was 5/6, the “B: Frequency of retching (mean ± SD)” value ([2]; 3 mg/kg p.o.) was 6.8 ± 2.6 b and the “C: Time period until first retching (minute; mean ± SD)” value ([2]; 3 mg/kg p.o.) was 10.5 ± 3.9 min. For the same compound, the “D: Duration of retching (minute; mean ± SD)” value ([2]; 3 mg/kg p.o.) was 2.7 ± 1.7 min, the “E: Number of ferrets with vomiting/number of tested ferrets” value ([2]; 3 mg/kg p.o.) was 1/6 and the “F: Frequency of vomiting (mean ± SD)” value ([2]; 3 mg/kg p.o.) was 0.5 ± 0.5 a. The “G: Time period until first vomiting (minute; mean ± SD)” value ([2]; 3 mg/kg p.o.) was 25.8 ± 4.2 b minute, the “H: Duration of vomiting (minute; mean ± SD)” value ([2]; 3 mg/kg p.o.) was 1.5 ± 1.5 min and the “Effect on vomiting (in words)” value ([3]; 3 mg/kg p.o.) was “likely to be suppressed”. The Vomiting suppression ratio ([3]; 3 mg/kg p.o.) was 48 % NS, the “B: Frequency of vomiting (mean ± SD)” value ([3]; 3 mg/kg p.o.) was 6.3 ± 1.3 and the “C: Time period until first vomiting (minute; mean ± SD)” value ([3]; 3 mg/kg p.o.) was 7.2 ± 0.6 min. For the same compound, the “D: Duration of vomiting (minute; mean ± SD)” value ([3]; 3 mg/kg p.o.) was 12.0 ± 3.0 min, the “Number of dogs with vomiting/number of tested dogs” value ([3]; 3 mg/kg p.o.) was 3/3 and the “Effect on the duration of vomiting from the start to the termination (in words)” value ([3]; 10 mg/kg p.o.) was “greatly shortened”. The “Effect on vomiting (in words)” value ([3]; 10 mg/kg p.o.) was “prominently suppressed”, the Vomiting suppression ratio ([3]; 10 mg/kg p.o.) was 89 % a and the “B: Frequency of vomiting (mean ± SD)” value ([3]; 10 mg/kg p.o.) was 1.3± 0.9b. For the same compound, the “C: Time period until first vomiting (minute; mean ± SD)” value ([3]; 10 mg/kg p.o.) was 27.6 ± 13.8 min, the “D: Duration of vomiting (minute; mean ± SD)” value ([3]; 10 mg/kg p.o.) was 1.2 ± 1.2 a minute and the “Number of dogs with vomiting/number of tested dogs” value ([3]; 10 mg/kg p.o.) was 2/3.
